Assay: Hair Switch Frizz Assessment by ten expert graders
Details: for Results of Hair Switch Rating (frizz protection, clean feel, greasy feel) in words: aqueous compositions, Tables 3 and 4, 1% material; for Results of Hair Switch Rating (frizz protection, clean, smooth, greasy feel) in words: non-aqueous compositions, Tables 9 and 10, 1% material
Description: The leave-on treatment compositions are prepared by adding the Moisture Control Materials and perfume, if needed, into a 50:50 ethanol/water carrier and stirred until complete dissolution. The solution pH is adjusted using sodium hydroxide (50% w/w) to a final pH of 4.0-4.2. […] Method of Making Non-Aqueous Leave-on Treatment Compositions The non-aqueous leave-on treatment compositions are prepared by adding the Moisture Control Materials and perfume, if needed, into a mixture of Dimethiconol/Dimethicone and Cyclopentasiloxane/Isododecane and stirred until complete dissolution. Additionally, propylene glycol is added to aid in dissolution of moisture control materials at high levels of dimethicone. […] Method of Making of Non-Aqueous Leave-on Treatment Composition in a Solid Form The leave-on treatment composition in solid form is prepared by mixing together two different compositions. A premix and main-mix. […] In-Use Product Feel Assessment on Hair Switch Ten expert graders are asked to apply formulation on hair and rate each formulation based on a 5 point scale for in-use feel assessment, 5 being the highest (best feel) and 1 being the lowest rating. Method of Determining Stability of the Compositions Leave-on compositions are kept at 40° C. at 60% RH to visually assess any precipitation on day 1 and after a week of storage at these conditions.
Then, ten experts are asked to rate each hair switch in terms of frizz, clean feel, and greasy feel, based on a 5 point scale, 5 being the highest and 1 being the lowest rating.
Then, ten experts are asked to rate each hair switch in terms of frizz, clean feel, smooth feel and greasy feel, based on a 5 point scale, 5 being the highest and 1 being the lowest rating.

Compound: O=S(=O)(O)c1ccc(O)cc1 [4-Hydroxybenzenesulphonic acid]
- Results of Hair Switch Rating (frizz protection, clean feel, greasy feel) in words: provide frizz protection with clean feel and without greasy feel negative
- Results of Hair Switch Rating (frizz protection, clean, smooth, greasy feel) in words: provide frizz protection with clean and smooth feel and without greasy feel negative

Compound: O=C(O)c1cc(Cl)ccc1O [5-Chlorosalicylic acid]
- Results of Hair Switch Rating (frizz protection, clean feel, greasy feel) in words: provide frizz protection with clean feel and without greasy feel negative
- Results of Hair Switch Rating (frizz protection, clean, smooth, greasy feel) in words: provide frizz protection with clean and smooth feel and without greasy feel negative

Compound: CCCCCCCCC(CO)CCCCCC (centres unmarked) [2-Hexyl-1-decanol]
- Results of Hair Switch Rating (frizz protection, clean feel, greasy feel) in words: provide frizz protection with clean feel and without greasy feel negative
- Results of Hair Switch Rating (frizz protection, clean, smooth, greasy feel) in words: provide frizz protection with clean, smooth feel and without greasy feel negative

Compound: O=C(O)c1ccc(O)cc1O [2,4-Dihydroxybenzoic acid]
- Results of Hair Switch Rating (frizz protection, clean feel, greasy feel) in words: provide frizz protection with clean feel and without greasy feel negative
- Results of Hair Switch Rating (frizz protection, clean, smooth, greasy feel) in words: provide frizz protection with clean and smooth feel and without greasy feel negative

Compound: O=C(OCCO)c1ccccc1O [2-Hydroxyethyl salicylate]
- Results of Hair Switch Rating (frizz protection, clean feel, greasy feel) in words: provide frizz protection with clean feel and without greasy feel negative
- Results of Hair Switch Rating (frizz protection, clean, smooth, greasy feel) in words: provide frizz protection with clean, smooth feel and without greasy feel negative

Compound: O=C(O)c1ccccc1O [Salicylic acid]
- Results of Hair Switch Rating (frizz protection, clean feel, greasy feel) in words: provide frizz protection with clean feel and without greasy feel negative
- Results of Hair Switch Rating (frizz protection, clean, smooth, greasy feel) in words: provide frizz protection with clean and smooth feel and without greasy feel negative

Compound: CC(C)CCCCCCCCCCCCCCCOC(=O)CCCCCCCCCCCCCCC(C)C [Isostearyl isostearate]
- Results of Hair Switch Rating (frizz protection, clean feel, greasy feel) in words: provide frizz protection with clean feel and without greasy feel negative
- Results of Hair Switch Rating (frizz protection, clean, smooth, greasy feel) in words: provide frizz protection with clean, smooth feel and without greasy feel negative

Source: patent US10980723B2, “Non-aqueous composition for hair frizz reduction” (The Procter & Gamble Company, priority 2017, dated 2021)
